Data taken from patent US12264134B2 (Merck Sharp & Dohme LLC, priority 2018, dated 2025).

Target: IDO1 (Homo sapiens, UniProt P14902)
Assay: IDO1 Cellular Assay in HeLa Cells Stimulated with IFNγ
Type: cell-based
Details: read-out: HeLa Cell Potency, IC50
Method: IDO1 Cellular Assay in HeLa Cells Stimulated with IFNγ
HeLa cells were cultured in complete HeLa culture medium (90% EMEM, 10% heat-inactivated fetal bovine serum) and expanded to about 1×10^9 cells. The cells were then collected and frozen down at 1×10^7 cells/vial in 1 mL frozen medium (90% complete HeLa culture medium, 10% DMSO).
Compounds to be tested were serially diluted in ten 3-fold steps in DMSO starting from 10 mM DMSO stocks in Echo low volume plate(s). Compound dilutions or DMSO alone were then dispensed from the dilution plate(s) into Greiner black 384-well assay plate(s) (catalog #781086, 50 nL/well) using an Echo 550 acoustic liquid handler (Labcyte).
Frozen HeLa cells were thawed and transferred into HeLa assay medium (99% complete HeLa culture medium, 1% Pen/Strep) with 20 mL medium/vial of cells. The cells were spun down at 250 g in a table top centrifuge for 5 min and suspended in same volume of HeLa assay medium. The cells were then counted and adjusted to a density of 2×10^5 cells/mL in HeLa assay medium. Sterile L-tryptophan were added to the cells with final concentration of 300 uM L-tryptophan. A small aliquot (2 mL/plate) of HeLa cells were set aside and were not treated with IFNγ, to serve as the Max-E control.
HeLa cells with and without IFNγ were dispensed to the respective wells of 384-well assay plates containing the compounds. The plates were incubated for about 48 hours at a 37° C., 5% CO2 incubator. Afterwards, 12 μL of 0.5 M methyl isonipecotate in dimethyl sulfoxide were added into each well and the plates were sealed and incubated at 37° C. without CO2 overnight. The plates were centrifuged for 1 min at 200×g. The resulting fluorescence was measured in a Spectramax plate reader (Molecular Devices) with a 400 nm excitation filter and a 510 nm emission filter.
The fluorescence intensity of each well was corrected for the background observed in wells with non-IFNγ-treated cells and was expressed as a fraction of the intensity observed in wells of IFNγ-treated cells and DMSO only. Potencies were calculated by linear least squares fit to the four parameter logistic IC50 equation.

Sequence of IDO1 (P14902 whole entry): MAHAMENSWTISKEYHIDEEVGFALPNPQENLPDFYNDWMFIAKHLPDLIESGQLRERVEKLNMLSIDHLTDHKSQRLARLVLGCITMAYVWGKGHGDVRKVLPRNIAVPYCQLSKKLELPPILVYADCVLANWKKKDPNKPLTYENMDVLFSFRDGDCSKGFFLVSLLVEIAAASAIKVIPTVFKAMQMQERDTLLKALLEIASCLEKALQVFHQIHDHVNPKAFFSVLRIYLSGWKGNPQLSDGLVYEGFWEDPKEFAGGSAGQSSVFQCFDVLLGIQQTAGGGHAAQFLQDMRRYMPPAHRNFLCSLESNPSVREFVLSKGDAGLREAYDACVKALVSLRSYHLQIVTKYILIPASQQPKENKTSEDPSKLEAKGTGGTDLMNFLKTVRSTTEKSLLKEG

| Compound | IC50 [nM] |
| --- | --- |
| Cc1cccc(N2CCN(C(=O)Cn3nc(C(=O)N4CC[C@H](O)[C@H](F)C4)c4c3C(F)(F)CCC4)CC2)c1C [Example 20, 2-(7,7-Difluoro-3-((3R,4S)-3-fluoro-4-hydroxypiperidine-1-carbonyl)-4,5,6,7-tetrahydro-1H-indazol-1-yl)-1-(4-(2,3-dimethylphenyl)piperazin-1-yl)ethanone] | 381 |
| Cc1cc(C#N)ccc1N1CCN(C(=O)Cn2nc(C(=O)N3C[C@@H](C)O[C@@H](C)C3)c3c2CCC3)CC1 [Example 26, 4-[4-[2-[3-[(2S,6R)-2,6-dimethylmorpholine-4-carbonyl]-5,6-dihydro-4H-cyclopenta[c]pyrazol-1-yl]acetyl]piperazin-1-ium-1-yl]-3-methyl-benzonitrile,2,2,2-trifluoroacetate] | 478 |
| C[C@@H]1CN(C(=O)c2nn(CC(=O)N3CCN(c4ccc(F)cc4)CC3)c3c2CCC3)C[C@H](C)O1 [Example 28, 2-{3-[(2R,6S)-2,6-dimethylmorpholine-4-carbonyl]-5,6-dihydrocyclopenta[c]pyrazol-1(4H)-yl}-1-[4-(4-fluorophenyl)piperazin-1-yl]ethan-1-one] | 337 |
| COc1cccc(N2CCN(C(=O)Cn3nc(C(=O)N4C[C@@H](C)O[C@@H](C)C4)c4c3CCC4)CC2)c1 [Example 29, 2-{3-[(2R,6S)-2,6-dimethylmorpholine-4-carbonyl]-5,6-dihydrocyclopenta[c]pyrazol-1(4H)-yl}-1-[4-(3-methoxyphenyl)piperazin-1-yl]ethan-1-one] | 316 |
| C[C@@H]1CN(C(=O)c2nn(CC(=O)N3CCN(c4cc(F)cc(F)c4F)CC3)c3c2CCC3)C[C@H](C)O1 [Example 30, 2-{3-[(2R,6S)-2,6-dimethylmorpholine-4-carbonyl]-5,6-dihydrocyclopenta[c]pyrazol-1(4H)-yl}-1-[4-(2,3,5-trifluorophenyl)piperazin-1-yl]ethan-1-one] | 474 |

These reach a lower IC50. Values come first.

| IC50 [nM] | Compound |
| --- | --- |
| 178 | C[C@@H]1CN(C(=O)c2nn(CC(=O)N3CCN(c4ccc5c(c4)CCO5)CC3)c3c2CCC3)C[C@H](C)O1 [Example 31, 1-[4-(2,3-dihydro-1-benzofuran-5-yl)piperazin-1-yl]-2-{3-[(2R,6S)-2,6-dimethylmorpholine-4-carbonyl]-5,6-dihydrocyclopenta[c]pyrazol-1(4H)-yl}ethan-1-one] |
| 117 | C[C@@H]1CN(C(=O)c2nn(CC(=O)N3CCN(c4cccc(F)c4Cl)CC3)c3c2CCC3)C[C@H](C)O1 [Example 32, 1-[4-(2-chloro-3-fluorophenyl)piperazin-1-yl]-2-{3-[(2R,6S)-2,6-dimethylmorpholine-4-carbonyl]-5,6-dihydrocyclopenta[c]pyrazol-1(4H)-yl}ethan-1-one] |
| 110 | COc1c(F)cc(N2CCN(C(=O)Cn3nc(C(=O)N4C[C@@H](C)O[C@@H](C)C4)c4c3CCC4)CC2)cc1F [Example 27, 1-[4-(3,5-difluoro-4-methoxyphenyl)piperazin-1-yl]-2-{3-[(2R,6S)-2,6-dimethylmorpholine-4-carbonyl]-5,6-dihydrocyclopenta[c]pyrazol-1(4H)-yl}ethan-1-one] |
| 65 | Cc1c(C#N)cccc1N1CCN(C(=O)Cn2nc(C(=O)N3C[C@@H](C)O[C@@H](C)C3)c3c2CCC3)CC1 [Example 33, 3-[4-({3-[(2R,6S)-2,6-dimethylmorpholine-4-carbonyl]-5,6-dihydrocyclopenta[c]pyrazol-1(4H)-yl}acetyl)piperazin-1-yl]-2-methylbenzonitrile] |
| 27.5 | Cc1cccc(N2CCN(C(=O)Cn3nc(C(=O)N4CCN(C(=O)CO)CC4)c4c3CC(F)(F)CC4)CC2)c1C [Example 22, 2-[6,6-difluoro-3-[4-(2-hydroxyacetyl)piperazine-1-carbonyl]-5,7-dihydro-4H-indazol-1-yl]-1-[4-(2,3-dimethylphenyl)piperazin-1-yl]ethanone] |
| 5.13 | Cc1cccc(N2CCN(C(=O)Cn3nc(C(=O)N4CCC(O)CC4)c4c3CC(F)(F)CC4)CC2)c1C [Example 21, 2-(6,6-difluoro-3-(4-hydroxypiperidine-1-carbonyl)-4,5,6,7-tetrahydro-1H-indazol-1-yl)-1-(4-(2,3-dimethylphenyl)piperazin-1-yl)ethanone] |
